{"source": "patent US5534496A", "about": "“Methods and compositions to enhance epithelial drug transport” (University of Southern California, priority 1994, dated 1996)", "key": {"[1]": {"assay": "Degradation in intestinal homogenates", "type": "in vitro ADME", "conditions": "0.5 mM; various intestinal homogenates", "excerpt": "Key: .quadrature., Pz-Pro-Leu; , Pro-Leu."}, "Caco2 monolayers": {"tested_on": "Caco2 monolayers", "assay": "Penetration of peptides across Caco2 monolayers", "conditions": "5 mM"}, "[2]": {"conditions": "from Betageri and Rogers (1987); cited from earlier work"}, "[3]": {"tested_on": "human colon carcinoma cell monolayer (Caco2)", "assay": "Transepithelial electrical resistance (TEER) of Caco2 monolayers", "conditions": "3 mM; prolonged exposure", "description": "A 500 ohms·cm^2 transepithelial electrical resistance, TEER, was used for the study.\nThe experiment was initiated by replacing the mucosal solution with sample solution. The viability of the cell monolayers was measured by TEER before and after exposure to the peptide solution. Five paracellular markers with different molecular radii were used to determine the extent of enhancement."}, "bacterial collagenase": {"tested_on": "bacterial collagenase", "assay": "Hydrolysis by bacterial collagenase", "conditions": "0.04 mg/ml bacterial collagenase"}, "[4]": {"tested_on": "isolated segments of duodenum, jejunum, ileum, ascending colon, descending colon, and rectum", "assay": "Penetration across isolated intestinal segments in modified Ussing chamber", "type": "in vitro ADME, albino rabbit", "conditions": "for penetration relative to atenolol, timolol and propranolol: all intestinal segments, all at 3 mM; for penetration: descending colon", "method": "The penetration of Pz-peptide across the isolated segments of duodenum, jejunum, ileum, ascending colon, descending colon, and rectum of the albino rabbit was evaluated in the modified Ussing chamber. Solution of Pz-peptide at concentrations of 1, 3, and 5 mM were prepared in 5% hydroxypropyl β-cyclodextrin, which was found not to affect either collagenase activity or integrity of the intestinal segments. Periodically up until 240 min, a 50 μl aliquot was collected from the serosal side and injected directly into the HPLC. The apparent permeability coefficient Papp, was calculated using methods well known to one skilled in the art. Papp is defined as the flux of any solute transported across a given membrane per unit area normalized to the concentration applied (see pages 72-73 from the text by W. D. Stein entitled, \"Transport and Diffusion A Cross Cell Membranes\")."}, "[5]": {"tested_on": "collagenase-like activity", "assay": "Collagenase activity (Pz-peptide hydrolysis) in homogenates and subcellular fractions of gastrointestinal mucosa", "type": "in vitro ADME", "conditions": "albino rabbit intestinal segments", "method": "Collagenase activity in homogenates and subcellular fractions of the gastrointestinal mucosa of the albino rabbit was determined by incubating 30 μl a homogenate or subcellular fraction with 20 μl of a Pz-peptide solution in 11% ethanol for up to 60 min. The subcellular fractions were the cytosolic and membrane fractions, and the concentrations of Pz-peptide ranged from 0.1 to 2 mM. The reaction was stopped by adding 225 μl of acetonitrile to the incubation mixture. Following centrifugation to remove precipitated proteins, an aliquot of the supernatant was injected into the HPLC for assay of the intact peptide and its hydrolytic product, Pz-L-Pro-L-Leu. Collagenase activity was determined from the initial slope of a plot of product concentration vs. time.\nUsing the procedure described in section A above, collagenase actively for the Pz-peptide was found in both tissue homogenate and subcellular fractions of the intestinal segments of the albino rabbit. Referring to FIG. 1, collagenase-like activity was highest in the descending colon and lowest in the jejunum, there being a 7-fold difference in activity at both high and low substrate concentration. […] About 60% of collagenase-like activity was in the cytosol."}}, "note": "“Also recorded” adds a separate entry of the source. Where a SMILES comes first, the peptide text is derived from it. [ ]: non-standard residue; d: D form. The star is where a group is joined. X1 = O=C(OCc1ccc(/N=N/c2ccccc2)cc1)*", "data": [{"smiles": "CC(C)C[C@H](NC(=O)[C@@H]1CCCN1)C(=O)O", "note": "[Pro-Leu, reference compound] (H-Pro-Leu-OH)", "values": [{"measurement": "enzymatic degradation", "setting": "[1]", "result": "degraded to various extent"}, {"measurement": "penetration relative to Pz-Pro-Leu", "setting": "Caco2 monolayers", "result": "about 10 times lower"}]}, {"smiles": "CC(C)NCC(O)COc1cccc2ccccc12", "note": "(stereo not drawn) [propranolol]", "values": [{"measurement": "distribution coefficient (DC)", "setting": "[2]", "result": 1640}]}, {"smiles": "C=C1[C@@H](C)[C@H]2[C@H](Cc3ccccc3)NC(=O)[C@]23OC(=O)/C=C/[C@H](O)CCC[C@@H](C)C/C=C/[C@H]3[C@@H]1O", "note": "[cytochalasin B]", "values": [{"measurement": "recovery of TEER", "setting": "[3]", "result": "only partial recovery"}]}, {"smiles": "CC(C)C[C@H](NC(=O)[C@@H]1CCCN1)C(=O)N[C@@H](CCC(=O)O)C(=O)N1CCC[C@H]1C(=O)N[C@H](CCCNC(=N)N)C(=O)O", "note": "[PLEP^d R, Pro-Leu-Glu-Pro-^d Arg] (H-PLEP[dR]-OH)", "values": [{"measurement": "susceptibility to collagenase action", "setting": "bacterial collagenase", "result": "not susceptible to collagenase action"}]}, {"smiles": "CC(C)C[C@H](NC(=O)[C@@H]1CCCN1C(=O)OCc1ccc(/N=N/c2ccccc2)cc1)C(=O)O", "note": "[Pz-Pro-Leu, Pz-L-Pro-L-Leu]", "values": [{"measurement": "enzymatic degradation", "setting": "[1]", "result": "resistant to enzymatic degradation"}, {"measurement": "concentration dependence of penetration", "setting": "[4]; all intestinal segments studied", "result": "independent of concentrations"}, {"measurement": "penetration relative to atenolol, timolol and propranolol", "setting": "[4]", "result": "penetrated equally well or even better"}, {"measurement": "penetration", "setting": "[4]", "result": "penetrated very well"}]}, {"smiles": "CC(C)C[C@H](NC(=O)[C@@H]1CCCN1C(=O)OCc1ccc(/N=N/c2ccccc2)cc1)C(=O)NCC(=O)N1CCC[C@H]1C(=O)N[C@H](CCCNC(=N)N)C(=O)O", "note": "[Pz-peptide, Pz-Pro-Leu-Gly-Pro-D-Arg] (X1-PLGP[dR]-OH)", "values": [{"measurement": "rank order of collagenase-like activity (Pz-peptide hydrolysis) in intestinal segments", "setting": "[5]", "result": "descending colon>ascending colon>rectum>ileum>duodenum>jejunum"}, {"measurement": "concentration dependence of penetration", "setting": "[4]; 1-5 mM, lower G.I. regions", "result": "increased with increasing peptide concentrations"}, {"measurement": "concentration dependence of transport", "setting": "[4]; 1-5 mM, upper G.I. segments", "result": "independent of concentrations"}, {"measurement": "permeability, lower intestine versus upper intestine", "setting": "[4]; albino rabbit intestinal segments", "result": "lower intestine was more permeable"}, {"measurement": "penetration relative to atenolol, timolol and propranolol", "setting": "[4]", "result": "penetrated equally well or even better"}, {"measurement": "penetration", "setting": "[4]", "result": "penetrated very well; also recorded: penetrated the second best"}, {"measurement": "rank order of permeability coefficient", "setting": "[4]; lower intestine", "result": "rectum>descending colon>ascending colon"}, {"measurement": "permeability of duodenum, jejunum and ileum", "setting": "[4]; upper intestine", "result": "equally permeable"}]}, {"smiles": "CC(C)(C)NC[C@H](O)COc1nsnc1N1CCOCC1", "note": "[timolol]", "values": [{"measurement": "distribution coefficient (DC)", "setting": "[2]", "result": 82}]}]}
